Here are results for 5 compounds from patent US20210338615A1, “Inhibition of Acetyl-CoA Metabolism for Treatment and Prevention of Immune System Diseases and Disorders” (Memorial Sloan Kettering Cancer Center, priority 2016, published 2021).

For one experiment, the system named is H3K9Ac at the Ifng locus. Put plainly: H3K9Ac at the Ifng promoter and CNS22 enhancer regions by ChIP-qPCR. The format is cell-based, mouse. The conditions noted are these: KO Th1 cells, 20 mM sodium acetate or 30 nM TSA for 24 h; normalized to Cd3e promoter. Background: Real-time PCR tracks product formation cycle by cycle.
Experiment [1] deals with CD4+ T cells differentiated under Th1 conditions. Put plainly: IFN-γ expression in CD4+ T cells differentiated under Th1 conditions (intracellular staining, flow cytometry). The conditions noted are these: for IFN-γ expression in KO T cells: LDHA-deficient (KO) Th1 cells, 20 mM sodium acetate or 30 nM TSA for another 24 h, PMA and ionomycin 4 h; for IFN-γ expression: WT naïve CD4+ T cells under Th1 conditions, inhibitor added for another 24 h, re-stimulated with PMA and ionomycin 4 h. In kind it is cell-based, mouse. The method, then: Panels D and E show naïve WT or KO CD4^+ T cells differentiated under Th1 conditions for 3 days, and either left untreated or supplemented with 20 mM sodium acetate for another 24 h.
(§1) IFN-γ expression was determined by intracellular staining. […] Cell viability was determined by LIVE/DEAD staining. […] Data represent mean±SD, n=3. […] Data represent mean±SD, n=3. Two-tailed unpaired t-test, **P≤0.01. […] Data represent mean±SD, n=4.
Naïve CD4^+ T cells isolated from wild-type mice were differentiated under Th1 conditions for 3 days. DMSO or indicated concentration of Fx11 was added to the cell culture for another 24 h, with or without 20 mM sodium acetate. […] IFN-γ expression was determined by intracellular staining. Representative plots (panel A) and quantification (panel B) are shown.
(§2) Cells from thymi, spleens, and lymph nodes were depleted of erythrocytes by hypotonic lysis. Cells were incubated with specific antibodies for 15 min on ice in the presence of anti-FcγR to block FcγR binding. Dead cells were excluded by DAPI (Invitrogen) staining. To determine cytokine expression, cells were stimulated with 50 ng/mL phorbol 12-myristate 13-acetate (Sigma) and 1 μM ionomycin (Sigma) in the presence of GolgiStop (BD Biosciences) for 4 h. After stimulation, cells were stained with cell-surface marker antibodies and LIVE/DEAD Fixable dye (Invitrogen) to exclude dead cells, fixed, and permeabilized with a transcription factor staining kit (eBioscience), followed by staining with cytokine antibodies. All samples were acquired with an LSR II flow cytometer (Becton, Dickinson) and analyzed with FlowJo software (TreeStar).
CD62L^+CD44^−CD25^−CD4^+ T cells were isolated from spleen and peripheral lymph nodes of wild-type (WT) or CD4^CreLdha^fl/fl (KO) mice with naïve CD4^+ T cells isolation kits (Miltenyi or Stem Cell). Purity was checked by flow cytometry, and was over 98%. For in vitro T cell activation, 0.2-0.5×10^6 naïve CD4^+ T cells were cultured on a 24-well plate pre-coated with 5 μg/mL anti-CD3 in T cell medium [RPMI/1640, 10% fetal bovine serum, 2 mM glutamine, 1 mM sodium pyruvate, 1× non-essential amino acid (Invitrogen), 10 mM HEPES, 55 μM 2-mercaptoethanol, 100 U/ml penicillin, […]] supplemented with 2 μg/mL anti-CD28 and 100 U/ml IL-2. For T helper 1 (Th1) cell differentiation, T cells were cultured with the addition of 10 μg/mL anti-IL-4 and 10 ng/mL IL-12. For T helper 17 (Th17) cell differentiation, T cells were cultured with the addition of 10 μg/mL anti-IL-4, 10 μg/mL anti-IFN-γ, 10 μg/mL anti-IL-2, 2 ng/ml TGF-β, 10 ng/ml IL-6, 10 ng/ml IL-23, and 10 ng/mL […]. For cell proliferation experiments, naïve CD4^+ T cells were labeled with CFSE (Invitrogen), and activated on a 24-well plate, pre-coated with 5 μg/mL anti-CD3, in T cell culture medium supplemented with 2 μg/mL anti-CD28 and 100 U/mL IL-2. CFSE dilution was assessed by flow cytometry on days 1, 2, and 3 post-activation. For sodium acetate and TSA treatment experiment, cells were differentiated under Th1 conditions for 3 days, and cultured in T cell medium supplemented with 100 U/mL IL-2, 10 μg/mL anti-IL-4, 10 ng/mL IL-12, and the indicated concentrations of sodium acetate (Sigma), TSA (Promega), or […] for 24 h. For ATP citrate lyase (ACL) inhibitor experiments, naïve CD4^+ T cells isolated from WT mice were cultured under Th1 conditions for 2 days or under Th17 conditions for 3 days. […]
(In general: A flow cytometer gives signals particle by particle.)

Experiment [2] has the same test system. In words: T-bet expression in Th1 cells by flow cytometry. In kind it is cell-based, mouse. To be noted: WT or KO Th1 cells, 20 mM sodium acetate or 30 nM TSA for another 24 h. The method, then:
as §1, §2
CD62L^+CD44^−CD25^−CD4^+ T cells were isolated from spleen and peripheral lymph nodes of wild-type (WT) or CD4^CreLdha^fl/fl (KO) mice with naïve CD4^+ T cells isolation kits (Miltenyi or Stem Cell). […] CFSE dilution was assessed by flow cytometry on days 1, 2, and 3 post-activation. […]

Experiment [3] has as its system CD4+ T cells differentiated under Th17 conditions. Put plainly: IL-17a expression in CD4+ T cells differentiated under Th17 conditions (flow cytometry). The format is cell-based, mouse. The method, then: Naïve WT or LDHA-deficient (KO) CD4^+ T cells were differentiated under Th17 conditions for 4 days. Increasing doses of GNE-140 were also included in the WT T cell culture. Cell viability was determined by a live/dead cell dye, and the percentage of live cell population is shown. In addition, cells were re-stimulated with PMA/ionomycin for 4 h. IL-17a and Foxp3 protein expression was examined by flow cytometry, and used as readouts for Th17 and Treg cell differentiation, respectively.
In panels A-C, naïve WT or LDHA-deficient (KO) CD4^+ T cells were differentiated under Th17 conditions for 3 days. Cells were re-stimulated with PMA/ionomycin for 4 h. […] Data represent mean±SD, n=2. Two-tailed unpaired t-test, **P≤0.01. […] In panels D-F, WT or KO mice were subjected to EAE induction by immunization with MOG peptide with CFA. […] Panel F is quantification of panel E; data represent mean±SD, n=4. […]
Naïve CD4 T cells (2.5×10^4) were isolated from spleen and peripheral lymph nodes of Ldha^fl/fl (WT) and CD4^CreLdha^fl/fl (KO) mice. […] Cytokines and transcription factors were analyzed by flow cytometry.
Cells from thymi, spleens, and lymph nodes were depleted of erythrocytes by hypotonic lysis. […] All samples were acquired with an LSR II flow cytometer (Becton, Dickinson) and analyzed with FlowJo software (TreeStar). […]

Experiment [4] concerns experimental autoimmune encephalomyelitis (EAE). Put plainly: Experimental autoimmune encephalomyelitis (EAE), mouse model of multiple sclerosis. To be noted: WT mice, MOG peptide with CFA; 35 mg/kg/day intraperitoneally daily from day 7. In kind it is in vivo. The method, then: In panels A-C, naïve WT or LDHA-deficient (KO) CD4^+ T cells were differentiated under Th17 conditions for 3 days. Cells were re-stimulated with PMA/ionomycin for 4 h. […] Data represent mean±SD, n=2. Two-tailed unpaired t-test, **P≤0.01. […] In panels D-F, WT or KO mice were subjected to EAE induction by immunization with MOG peptide with CFA. Clinical scoring in panel D: 0, no overt signs of disease; 1, limp tail; 2, partial hind-limb paralysis; 3, total hind-limb paralysis; 4, hind-limb paralysis and 75% body paralysis; 5, complete body paralysis, or moribund state, or death by EAE, or sacrifice for humane reasons. […] IL-17a and IFN-γ protein expression were examined by flow cytometry. Panel F is quantification of panel E; data represent mean±SD, n=4. Two-tailed unpaired t-test, ***P≤0.001. […] Naïve WT or KO CD4^+ T cells were differentiated under Th17 conditions for 3 days, and BMS 303141 was included in the culture for another 24 hours. Cells were re-stimulated with PMA/ionomycin for 4 h. IL-17a protein expression was examined by flow cytometry. […] WT mice were subjected to EAE induction by immunization with MOG peptide with CFA. BMS 303141 (35 mg/kg/day) was intraperitoneally injected daily, starting from day 7. Clinical scoring was the same as in panel D.

Experiment [5] deals with CD4CreLdhafl/fl (KO) CD4+ T cells differentiated under Th1 conditions. The conditions noted are these: 20 mM sodium acetate for 24 h.
Method: In panels A-D, naïve CD4^+ T cells isolated from wild-type (WT) mice were differentiated under Th1 conditions for 2 days. DMSO or the ATP citrate lyase inhibitor (ACLi) BMS-303141 was added to the culture for another 24 h. Subsequently, cells were re-stimulated with phorbol myristate acetate (PMA) and ionomycin for 4 h. IFN-γ expression was determined by intracellular staining. […] Cell viability was determined by LIVE/DEAD staining. […] Data represent mean±SD, n=3. Two-tailed unpaired t-test, *P≤0.05; **P≤0.01; ns, not significant. […] Acetyl-CoA levels were measured by an acetyl-CoA assay kit. Data represent mean±SD, n=3. Two-tailed unpaired t-test, **P≤0.01. […] The expression of T-bet was determined by flow cytometry. Panels G and H show naïve CD4^+ T cells isolated from WT or KO mice, differentiated under Th1 conditions for 3 days. […] The expression of IFN-γ (panel G) and T-bet (panel H) were determined by flow cytometry. […]
For measurement of cytosolic acetyl-CoA, naïve CD4^+ T cells were differentiated under Th1 conditions for 2 days and then cultured in fresh T cell medium for another 24 h. […] Freshly isolated naïve WT and KO CD4^+ T cells were rested in T cell medium with 10 ng/mL IL-7 for 4 h at 37° C. in the incubator, and the level of acetyl-CoA was measured.

Method for H3K9Ac at the Ifng locus: Enrichment was normalized to H3K9Ac at the Cd3e promoter region. […] Cells were subsequently re-stimulated with phorbol myristate acetate (PMA) and ionomycin for 4 h.
In panels A-D, naïve CD4^+ T cells isolated from wild-type (WT) mice were differentiated under Th1 conditions for 2 days. […] Subsequently, cells were re-stimulated with phorbol myristate acetate (PMA) and ionomycin for 4 h. IFN-γ expression was determined by intracellular staining. […] Cell viability was determined by LIVE/DEAD staining. […] Data represent mean±SD, n=3. Two-tailed unpaired t-test, *P≤0.05; **P≤0.01; ns, not significant. […] Acetyl-CoA levels were measured by an acetyl-CoA assay kit. Data represent mean±SD, n=3. Two-tailed unpaired t-test, **P≤0.01. […] The expression of T-bet was determined by flow cytometry. Panels G and H show naïve CD4^+ T cells isolated from WT or KO mice, differentiated under Th1 conditions for 3 days. […] The expression of IFN-γ (panel G) and T-bet (panel H) were determined by flow cytometry. […]
Chromatin immunoprecipitations were performed with SimpleChIP Enzymatic Chromatin IP Kit (Cell Signaling) according to manufacturer's instructions. […] The relative abundance of precipitated DNA fragments was analyzed by qPCR using Power SYBR Green PCR Master Mix (Qiagen) and the enrichments were normalized to Cd3e promoter.

`CC(/C=C/C(=O)NO)=C\[C@@H](C)C(=O)c1ccc(N(C)C)cc1` [TSA]: the “H3K9Ac in the Ifng locus” value with H3K9Ac at the Ifng locus was “increased H3K9Ac in the Ifng locus”. Further, in experiment [1], the “IFN-γ expression in KO T cells” value was “rectified IFN-γ expression in KO T cells”. For the same compound, the T-bet expression result in experiment [2] was “without affecting T-bet expression”.
For `CCCc1c(O)c(O)c(C(=O)O)c2cc(Cc3ccccc3)c(C)cc12` [FX11], the “inhibitory effect on IFN-γ expression when supplementing cells with acetate” value in experiment [1] (WT Th1 cells, FX11 for 24 h with 20 mM sodium acetate) is “fully nullified”. In experiment [1], the IFN-γ expression result is given as “dose-dependently inhibited IFN-γ expression”.
As to `COc1ccc(-c2ccccc2)cc1NS(=O)(=O)c1cc(Cl)cc(Cl)c1O` [BMS 303141, 3,5-dichloro-2-hydroxy-N-(4-methoxy[1,1′-biphenyl]-3-yl)-benzenesulfonamide], the IL-17a production result in experiment [3] (Th17 conditions for 3 days, BMS 303141 in the culture for another 24 hours, PMA/ionomycin 4 h) is “repressed IL-17a production”. Further, the IFN-γ expression result in experiment [1] is reported as “suppresses IFN-γ expression”. The “protection from EAE (clinical scoring)” value in experiment [4] was “completely protected mice from EAE”.
With `O=C1N[C@](c2ccc(N3CCOCC3)cc2)(c2ccsc2)CC(O)=C1Sc1ccccc1Cl` [GNE-140, (2R)-5-(2-chlorophenyl)sulfanyl-4-hydroxy-2-(4-morpholin-4-ylphenyl)-2-thiophen-3-yl-1,3-dihydropyridin-6-one], the IL-17A expression entry in experiment [3] (WT T cells under Th17 conditions with APCs, 0.3, 10 or 30 μM GNE-140, harvested day 4, PMA/ionomycin 4 h) is reported as “inhibited IL-17A expression in WT T cells in a dose-dependent manner”.
Consider `CC(=O)[O-].[Na+]` [Acetate, sodium acetate], for which the “H3K9Ac in the Ifng locus” value with H3K9Ac at the Ifng locus is “normalization of H3K9Ac in Ifng promoter and enhancer regions”. Moreover, the “IFN-γ expression in KO T cells” value in experiment [1] was “corrected IFN-γ expression in KO T cells”. Moreover, the T-bet expression result in experiment [2] is given as “without affecting T-bet expression”. The acetyl-CoA production result in experiment [5] is “augmented acetyl-CoA production”.
